The values that follow come from patent US12545659B2, “IRAK degraders and uses thereof” (Kymera Therapeutics, Inc., priority 2019, dated 2026).

pIC50: −log10 of the molar value. Where only a bound is given, the exact number is not on record here.

The conditions of data set [1]: cn_pd bond; 14-membered ring; BrettPhos Pd G4/Cs2CO3; DMA; 21.2 mM; 80.0 °C.
The subject of data set [2] is OCI-LY10 (MYD88 mutant DLBCL cell line). In words: OCI-LY10 viability, CTG. It is filed as cell-based. The conditions noted are these: Homo sapiens, OCI-Ly10, read-out: OCI-LY10 Viability, CTG IC50.
Data set [3] has as its system SU-DHL2 (MYD88 mutant DLBCL cell line). The data set can be described thus: SU-DHL2 viability, CTG. It is filed as cell-based. The conditions noted are these: Homo sapiens, SU-DHL-2, read-out: SU-DHL2 Viability, CTG IC50.
The test system of data set [4] is SU-DHL6 (MYD88 WT line). In words: SU-DHL6 viability, CTG. In kind it is cell-based. The conditions noted are these: Homo sapiens, SU-DHL-6, in vitro.
Data set [5] concerns U2932 (MYD88 WT line). In words: U2932 viability, CTG. It is filed as cell-based. The conditions noted are these: Homo sapiens, in vitro.
The subject of data set [6] is OCI-LY19 (MYD88 WT line). In words: OCI-LY19 viability, CTG. In kind it is cell-based. The conditions noted are these: Homo sapiens, in vitro.
Data set [7] has as its target T1, IRAK4 (Homo sapiens, UniProt Q9NWZ3).
T1 construct: endogenous in cells; host or cells: OCI-LY10
T1 sequence (Q9NWZ3 1-460): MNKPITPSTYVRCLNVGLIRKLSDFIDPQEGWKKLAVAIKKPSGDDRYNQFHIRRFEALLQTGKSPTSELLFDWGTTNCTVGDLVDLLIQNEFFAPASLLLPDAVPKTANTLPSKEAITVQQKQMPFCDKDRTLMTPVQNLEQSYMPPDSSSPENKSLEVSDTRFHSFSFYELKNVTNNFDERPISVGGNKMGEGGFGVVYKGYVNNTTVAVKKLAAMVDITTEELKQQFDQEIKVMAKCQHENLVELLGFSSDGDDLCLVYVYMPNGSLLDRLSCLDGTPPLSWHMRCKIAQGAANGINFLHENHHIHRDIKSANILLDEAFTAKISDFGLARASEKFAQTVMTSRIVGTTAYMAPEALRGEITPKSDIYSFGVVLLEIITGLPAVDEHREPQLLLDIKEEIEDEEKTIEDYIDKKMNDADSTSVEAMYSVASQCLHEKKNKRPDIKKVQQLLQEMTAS
In words: IRAK4 MSD Degradation in OCI-LY10. The following applies: OCI-LY10 cells, 24 hrs incubation, read-out: IRAK4 degradation in OCI-LY10 at 24 hrs: DC50. In kind it is cell-based. The method in brief: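 IRAK4 remaining in lysates was read by Meso Scale electrochemiluminescence sandwich (2H9 capture, Y279 plus SULFO-TAG detection). Cells were exposed 4 to 24 h at 37 °C to eight 3-fold dilutions from 1 to 10 μM final top; three-parameter logistic fit gave DC50.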

In data set [1], “12-((1R,4R)-4-(hydroxymethyl)cyclohexyl)-12H-5,8,11-trioxa-2-aza-1(5,6)-indazola-4(2,6)-pyridinacycloundecaphan-3-one” came in with a ring closure, yield after HPLC of 58%.
In general, pIC50 refers to the negative decadic logarithm of the IC50, by convention in mol/L. What is called DC50 is the concentration giving 50% degradation. As for `CN(C[C@H]1CC[C@H](n2cc3cc(NC(=O)c4cccc(C(F)(F)F)n4)c(C(C)(C)O)cc3n2)CC1)C1CCN(Cc2cccc3c2n(C)c(=O)n3C2CCC(=O)NC2=O)CC1` (stereo partly shown) [I-1], the pIC50 in data set [2] was under 5.00; in data set [3], under 5.00; in data set [4] it was 5.25; in data set [5], under 5.00; in data set [6], under 5.00. The DC50 in data set [7] lay in the range of 0.1 to 0.5 µM.
